Here are results for 24 molecules from PubChem BioAssay AID1259408 (Genetic Toxicology Data Bank (GENE-TOX), 2018).

In this data set the test system is GENE-TOX genotoxicity assays, various organisms and cells. The experiment in a line: GENE-TOX mutagenicity studies.
The mark [1] stands for this setting: Species/Cell Type: Bacillus subtilis (H17 vs M45), Assay Type: Rec-assay, spot test, DNA effects (bacterial DNA repair), Assay Code: REWT, Evaluation Type: Evaluation A (Pre-1980).
Setting [2] is: Species/Cell Type: Salmonella typhimurium (one or more of the five standard strains: TA98, TA100, TA1535, TA1537, and TA1538), Assay Type: Histidine reverse gene mutation, Ames assay, Assay Code: SALT, Evaluation Type: Evaluation A (Pre-1980).
The mark [3] stands for this setting: Species/Cell Type: Drosophila melanogaster, Assay Type: Sex-linked recessive lethal gene mutation, Assay Code: SRL+, Evaluation Type: Evaluation A (Pre-1980).
[4] abbreviates: Species/Cell Type: Salmonella typhimurium (one or more of the five standard strains: TA98, TA100, TA1535, TA1537, and TA1538), Assay Type: Histidine reverse gene mutation, Ames assay, Assay Code: SAL+*, Activation: With metabolic activation, Evaluation Type: Evaluation A (Pre-1980).
[5] abbreviates: Species/Cell Type: Salmonella typhimurium (one or more of the five standard strains: TA98, TA100, TA1535, TA1537, and TA1538), Assay Type: Histidine reverse gene mutation, Ames assay, Assay Code: SAL+, Evaluation Type: Evaluation A (Pre-1980).
The mark [6] stands for this setting: Species/Cell Type: Drosophila melanogaster, Assay Type: Sex-linked recessive lethal gene mutation, Assay Code: SRLT, Evaluation Type: Evaluation A (Pre-1980).
Setting [7] is: Species/Cell Type: Salmonella typhimurium, Assay Type: Forward and reverse gene mutation, host-mediated assay, Assay Code: HMA-, Evaluation Type: Evaluation A (Pre-1980).
Setting [8] is: Species/Cell Type: Human, Assay Type: Sister-chromatid exchange (SCE) in vitro, Assay Code: SC1+D, Dose Response: With dose response, Evaluation Type: Evaluation B (Post-1980).
Setting [9] is: Species/Cell Type: Mammalian polychromatic erythrocytes, Assay Type: Micronucleus test, chromosome aberrations, Assay Code: MNT+, Evaluation Type: Evaluation B (Post-1980).

Active and inactive are the calls of the source. No rule for the calls is given here.

As to `CN[C@@H]1[C@H](O[C@H]2[C@H](O[C@H]3[C@H](O)[C@@H](O)[C@H](N=C(N)N)[C@@H](O)[C@@H]3N=C(N)N)O[C@@H](C)[C@]2(O)CO)O[C@@H](CO)[C@H](O)[C@H]1O`, the mutagenic call (Species/Cell Type: Vicia faba, Assay Type: Chromosome aberrations, Assay Code: VIC-, Evaluation Type: Evaluation A (Pre-1980)) is “inactive; negative”.
Consider `O=C1C(c2[nH]c3ccc(S(=O)(=O)O)cc3c2O)=Nc2ccc(S(=O)(=O)O)cc21`, for which the mutagenic call is, setting by setting: under setting [1], “no conclusion”; (Species/Cell Type: Bacillus subtilis (H17 vs M45T), Assay Type: Rec-assay, spot test, DNA effects (bacterial DNA repair), Assay Code: REXT, Evaluation Type: Evaluation A (Pre-1980)) “no conclusion”; (Species/Cell Type: Saccharomyces cerevisiae, Assay Type: Mitotic recombination or gene conversion, Assay Code: YEC-, Evaluation Type: Evaluation A (Pre-1980)) “inactive; negative”; (Species/Cell Type: Salmonella typhimurium (one or more of the five standard strains: TA98, TA100, TA1535, TA1537, and TA1538), Assay Type: Histidine reverse gene mutation, Ames assay, Assay Code: SAL-, Evaluation Type: Evaluation A (Pre-1980)) “inactive; negative”.
With `C/C=C\C(=O)O[C@@H]1C[C@H]2O[C@@H]3C=C(C)[C@@H]4O[C@@H]4[C@]3(C)C1(C)[C@]21CO1`, the mutagenic call under setting [2] was “no conclusion”.
For the molecule `C[C@@H]1C(=O)OCC2=CCN3CC[C@@H](OC(=O)[C@@H](C)[C@@]1(C)O)[C@@H]23`, the mutagenic call was “active; positive” under setting [3] and “active; positive” (Species/Cell Type: Drosophila melanogaster, Sex: Male, Assay Type: Heritable translocation test, chromosome aberrations, Assay Code: DHT+, Evaluation Type: Evaluation A (Pre-1980)).
Turning to `Nc1ccc(N=Nc2ccc(S(=O)(=O)O)cc2)c(N)c1`, under setting [4], the mutagenic call is “active; positive”.
`COc1ccc2nc3cc(Cl)ccc3c(NCCCSCCCl)c2n1`: the mutagenic call (Species/Cell Type: Chinese hamster ovary (CHO) cells, Assay Type: Forward gene mutation at the HPRT locus, Assay Code: CHO+, Evaluation Type: Evaluation B (Post-1980)) was “active; positive”.
With `CC(=O)c1cc([N+](=O)[O-])c[nH]1`, the mutagenic call under setting [2] is reported as “no conclusion”.
As to `O[C@H]1c2ccc3cc4ccccc4cc3c2[C@@H]2OC2[C@@H]1O` (stereo not given in full), for the setting “Species/Cell Type: Chinese hamster lung (V79) cells, Assay Type: Forward gene mutation at the HPRT or ouabain locus, Assay Code: V79+, Evaluation Type: Evaluation A (Pre-1980)”, the mutagenic call is “active; positive”.
For `C=C/C=C/Cl`, the mutagenic call under setting [3] was “active; positive”.
As to `N#[N+]c1nc[nH]c1C(N)=O`, the mutagenic call under setting [5] was “active; positive”.
Take `Cc1c2ccccc2c(C(=O)O)c2ccc3ccccc3c12`: under setting [6], the mutagenic call is on record as “no conclusion”.
As for `COP(=S)(OC)Oc1ccc(SC)c(C)c1`, the mutagenic call under setting [1] is recorded as “no conclusion”; the mutagenic call under setting [6] was “no conclusion”; the mutagenic call (Species/Cell Type: Escherichia coli WP2 UVRA, Assay Type: Tryptophan reverse gene mutation, Assay Code: WPU-*, Activation: With metabolic activation, Evaluation Type: Evaluation A (Pre-1980)) was “inactive; negative”; the mutagenic call (Species/Cell Type: Escherichia coli polA (W3119 vs P3478), Assay Type: Rec-assay, DNA effects (bacterial DNA repair), Assay Code: RE1T, Evaluation Type: Evaluation A (Pre-1980)) is given as “no conclusion”; the mutagenic call (Species/Cell Type: Human diploid fibroblasts, Assay Type: Unscheduled DNA synthesis (UDS) in vitro, DNA effects, Assay Code: UDH-, Evaluation Type: Evaluation A (Pre-1980)) is “inactive; negative”; the mutagenic call (Species/Cell Type: Human, Assay Type: Sister-chromatid exchange (SCE) in vitro, Assay Code: SC1T, Evaluation Type: Evaluation B (Post-1980)) was “no conclusion”. The mutagenic call runs as follows: (Species/Cell Type: Nonhuman, Assay Type: Sister-chromatid exchange (SCE) in vitro, Assay Code: SC2+D*, Activation: With metabolic activation, Dose Response: With dose response, Evaluation Type: Evaluation B (Post-1980)) “active; positive”; (Species/Cell Type: Saccharomyces cerevisiae, Assay Type: Mitotic recombination or gene conversion, Assay Code: YEH-, Evaluation Type: Evaluation A (Pre-1980)) “inactive; negative”.
In the case of `CCC1(c2ccccc2)C(=O)NC(=O)N(C(=O)c2ccccc2)C1=O` (stereo not given), the mutagenic call (Species/Cell Type: Rodents, Sex: Male, Assay Type: Dominant lethal test, Assay Code: DLTT, Evaluation Type: Evaluation A (Pre-1980)) is given as “no conclusion” and the mutagenic call under setting [7] is “inactive; negative”.
In the case of `O=S(=O)(O)c1ccc(N=C2C=CC(=C(c3ccc(Nc4ccc(S(=O)(=O)O)cc4)cc3)c3ccc(Nc4ccc(S(=O)(=O)O)cc4)cc3)C=C2)cc1`, the mutagenic call under setting [1] is “no conclusion”.
`ClC(Cl)=C(c1ccc(Cl)cc1)c1ccccc1Cl`: under “Species/Cell Type: Nonhuman, Assay Type: Chromosome aberrations in vitro, Assay Code: CY&-, Evaluation Type: Evaluation A (Pre-1980)”, the mutagenic call is “inactive; negative”.
With `COc1cc(O)c2c(O)c3c(c4c2c1[C@]1(C4)C(C)=CCCC1(C)C)[C@H](O)[C@@]1(O)CC(=O)C(C(N)=O)=C(O)[C@@]1(O)C3=O`, under setting [4], the mutagenic call is “active; positive”.
For the molecule `Nc1nccc2c1[nH]c1ccccc12`, the mutagenic call runs as follows: under setting [8], “active; positive”; (Species/Cell Type: Nonhuman, Assay Type: Sister-chromatid exchange (SCE) in vitro, Assay Code: SC2T, Evaluation Type: Evaluation B (Post-1980)) “no conclusion”.
As to `O=C(O)CCC(=O)OC[C@@H](NC(=O)C(Cl)Cl)[C@H](O)c1ccc([N+](=O)[O-])cc1`, the mutagenic call reads like this: (Species/Cell Type: Mammalian polychromatic erythrocytes, Assay Type: Micronucleus test, chromosome aberrations, Assay Code: MNTT, Evaluation Type: Evaluation A (Pre-1980)) “no conclusion”; (Species/Cell Type: Mouse, Sex: Male, Assay Type: Sperm morphology, Assay Code: SPI-, Evaluation Type: Evaluation A (Pre-1980)) “inactive; negative”.
As to `ClCCl`, the mutagenic call (Species/Cell Type: Drosophila melanogaster, Assay Type: Sex-linked recessive lethal gene mutation, Assay Code: SRL-, Evaluation Type: Evaluation A (Pre-1980)) is “inactive; negative”; the mutagenic call (Species/Cell Type: Fischer rat embryo (RLV/1706) cells, Assay Type: Cell transformation, viral enhanced, Assay Code: CTR+, Evaluation Type: Evaluation A (Pre-1980)) was “active; positive”; the mutagenic call (Species/Cell Type: Mammalian polychromatic erythrocytes, Assay Type: Micronucleus test, chromosome aberrations, Assay Code: MNT-, Evaluation Type: Evaluation B (Post-1980)) was “inactive; negative”; the mutagenic call (Species/Cell Type: Nonhuman, Assay Type: Sister-chromatid exchange (SCE) in vitro, Assay Code: SC2+D, Dose Response: With dose response, Evaluation Type: Evaluation B (Post-1980)) is “active; positive”; the mutagenic call (Species/Cell Type: Saccharomyces cerevisiae, Assay Type: Mitotic recombination or gene conversion, Assay Code: YEC+, Evaluation Type: Evaluation A (Pre-1980)) was “active; positive”; the mutagenic call (Species/Cell Type: Saccharomyces cerevisiae, Assay Type: Mitotic recombination or gene conversion, Assay Code: YEH+, Evaluation Type: Evaluation A (Pre-1980)) was “active; positive”. The mutagenic call reads like this: (Species/Cell Type: Saccharomyces cerevisiae, Assay Type: Reverse gene mutation, Assay Code: YER+, Evaluation Type: Evaluation A (Pre-1980)) “active; positive”; under setting [5], “active; positive”.
On to `Cc1ccccc1O`, for which the mutagenic call runs as follows: (Species/Cell Type: Allium cepa, Assay Type: Chromosome aberrations, Assay Code: ALCT, Evaluation Type: Evaluation A (Pre-1980)) “no conclusion”; (Species/Cell Type: Human lymphocytes, Assay Type: Sister-chromatid exchange (SCE) in vitro, Assay Code: SCLT, Evaluation Type: Evaluation B (Post-1980)) “no conclusion”; (Species/Cell Type: Human, Assay Type: Sister-chromatid exchange (SCE) in vitro, Assay Code: SC1+, Evaluation Type: Evaluation B (Post-1980)) “active; positive”; (Species/Cell Type: Nonhuman, Assay Type: Sister-chromatid exchange (SCE) in vivo, Assay Code: SC3T, Evaluation Type: Evaluation B (Post-1980)) “no conclusion”.
On to `COc1ccc(CCC(=O)c2c(O)cc(O[C@@H]3O[C@H](CO)[C@@H](O)[C@H](O)[C@H]3O[C@@H]3O[C@@H](C)[C@H](O)[C@@H](O)[C@H]3O)cc2O)cc1O`, for which the mutagenic call is “active; positive” under setting [9] and “inactive; negative” under setting [7].
`O=[N+]([O-])c1ccc(C2CO2)cc1` (stereo not given): the mutagenic call is “active; positive” (Species/Cell Type: Human lymphocytes, Assay Type: Sister-chromatid exchange (SCE) in vitro, Assay Code: SCL+D, Dose Response: With dose response, Evaluation Type: Evaluation B (Post-1980)) and “active; positive” under setting [8].
For `NNC(=O)COc1ccc(Br)cc1CN1CCOCC1`, the mutagenic call (Species/Cell Type: Saccharomyces cerevisiae, Assay Type: Reverse gene mutation, Assay Code: YERT, Evaluation Type: Evaluation A (Pre-1980)) is “no conclusion”.
As to `Nc1ccc(-c2ccc(-c3ccc(N)cc3)cc2)cc1`, the mutagenic call under setting [9] was “active; positive”.
